Assay results: PubChem BioAssay (NCI)
Values joined by “and” are separate entries in the source; they are usually repeats but may differ in a detail not shown here. Identical values can stand only once.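 How tested: cells in 96-well plates exposed to compound for 48 hours at five concentrations. GI50 is the concentration that inhibits growth by half. The concentration for full growth arrest is given as TGI.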

How the values were obtained:
Assay in all cases: NCI tumour cell line growth inhibition, 48 h
[1] = system: RXF 393 renal
[2] = system: NCI-H522 lung
[3] = system: SW-620 colon
[4] = system: M14 melanoma
[5] = system: SF-295 CNS
[6] = system: NCI-H23 lung
[7] = system: SK-MEL-2 melanoma
[8] = system: SF-268 CNS
[9] = system: DMS 273 small cell lung
[10] = system: P388 leukemia
[11] = system: SF-539 CNS
[12] = system: HS 578T breast
[13] = system: LOX IMVI melanoma
[14] = system: 786-0 renal
[15] = system: KM20L2 colon
[16] = system: P388/ADR leukemia
[17] = system: SK-MEL-28 melanoma
[18] = system: UACC-62 melanoma
[19] = system: A498 renal
[20] = system: U251 CNS
[21] = system: SK-MEL-5 melanoma
[22] = system: XF 498 CNS
[23] = system: M19-MEL melanoma
[24] = system: HCT-116 colon
[25] = system: SNB-75 CNS
[26] = system: HOP-62 NSCLC
[27] = system: KM12 colon
[28] = system: A549 NSCLC
[29] = system: HL-60(TB) leukemia
[30] = system: HCT-15 colon
[31] = system: K-562 leukemia
[32] = system: SK-OV-3 ovarian
[33] = system: IGROV1 ovarian
[34] = system: DLD-1 colon
[35] = system: NCI/ADR-RES ovarian
[36] = system: RPMI-8226 leukemia
[37] = system: HOP-18 NSCLC
[38] = system: MCF7 breast
[39] = system: SNB-19 CNS
[40] = system: SN12K1 renal
[41] = system: COLO 205 colon
[42] = system: HCC-2998 colon
[43] = system: DU-145 prostate
[44] = system: UO-31 renal
[45] = system: CAKI-1 renal
[46] = system: PC-3 prostate
[47] = system: SR leukemia
[48] = system: TK-10 renal
[49] = system: CCRF-CEM leukemia
[50] = system: SN12C renal
[51] = system: MALME-3M melanoma
[52] = system: BT-549 breast
[53] = system: OVCAR-8 ovarian
[54] = system: NCI-H460 lung
[55] = system: NCI-H226 lung
[56] = system: SNB-78 CNS
[57] = system: HOP-92 NSCLC
[58] = system: DMS 114 small cell lung
[59] = system: MOLT-4 leukemia
[60] = system: HT29 colon
[61] = system: MDA-N
[62] = system: OVCAR-5 ovarian
[63] = system: ACHN renal
[64] = system: OVCAR-4 ovarian
[65] = system: OVCAR-3 ovarian
[66] = system: MDA-MB-435
[67] = system: MDA-MB-231 breast
[68] = system: EKVX NSCLC
[69] = system: UACC-257 melanoma
[70] = system: T-47D breast

`NC(=O)c1ncn2c(=O)n(CCCl)nnc12` was tested, and the TGI [1] was 337 µM, the TGI [2] was 384 µM and the GI50 [3] was 51.2 µM. For the same molecule, the TGI [3] was 822 µM, the TGI [4] was 500 µM and the GI50 [5] was > 68 µM. For the same molecule, the TGI [5] was 239 µM, the GI50 [6] was > 72.8 µM and the TGI [6] was 330 µM. The TGI [7] was 511 µM, the GI50 [8] was 10.7 µM and the TGI [8] was > 45 µM and 709 µM. The TGI [9] was 275 µM, the TGI [10] was 482 µM and the TGI [11] was 164 µM. It also gave a TGI [12] of 695 µM, a TGI [13] of 279 µM and a GI50 [14] of 46.4 µM. For the same molecule, the TGI [14] was 195 µM, the TGI [15] was 319 µM and the TGI [16] was 335 µM. The TGI [17] was 562 µM, the GI50 [18] was 44.9 µM and the TGI [18] was 137 µM. For the same molecule, the TGI [19] was 375 µM, the GI50 [20] was 99.2 µM and the TGI [20] was 447 µM. The TGI [21] was 324 µM, the TGI [22] was 149 µM and the TGI [23] was 376 µM. For the same molecule, the TGI [24] was 369 µM, the GI50 [25] was 23.7 µM and the TGI [25] was 205 µM. For the same molecule, the GI50 [26] was 53.4 µM, the TGI [26] was 139 µM and the GI50 [27] was > 92.4 µM. The TGI [27] was 408 µM, the TGI [28] was 628 µM and the TGI [29] was 223 µM. The TGI [30] was 521 µM, the TGI [31] was 642 µM and the TGI [32] was 130 µM. The TGI [33] was 482 µM, the TGI [34] was 720 µM and the TGI [35] was 496 µM. For the same molecule, the TGI [36] was 1250 µM, the TGI [37] was 1130 µM and the GI50 [38] was 68.3 µM. The TGI [38] was 379 µM, the GI50 [39] was 69 µM and the TGI [39] was 995 µM. It also gave a TGI [40] of 266 µM, a TGI [41] of 305 µM and a TGI [42] of 366 µM. For the same molecule, the TGI [43] was 520 µM, the TGI [44] was 521 µM and the GI50 [45] was 91.4 µM. The TGI [45] was 548 µM, the TGI [46] was 534 µM and the GI50 [47] was 57.9 µM. The TGI [47] was 801 µM, the TGI [48] was 651 µM and the GI50 [49] was > 62.9 µM. For the same molecule, the TGI [49] was 440 µM, the TGI [50] was 546 µM and the TGI [51] was 346 µM. The TGI [52] was 306 µM, the TGI [53] was 426 µM and the TGI [54] was 221 µM. The TGI [55] was 425 µM, the TGI [56] was 527 µM and the TGI [57] was 408 µM. The TGI [58] was 131 µM, the GI50 [59] was 37.2 µM and the TGI [59] was 567 µM. For the same molecule, the TGI [60] was 367 µM, the TGI [61] was 338 µM and the TGI [62] was 608 µM. The GI50 [63] was > 71.2 µM, the TGI [63] was 385 µM and the GI50 [64] was > 69.4 µM. For the same molecule, the TGI [64] was 437 µM, the TGI [65] was 475 µM and the TGI [66] was 388 µM. For the same molecule, the TGI [67] was 584 µM, the TGI [68] was 436 µM and the TGI [69] was 391 µM. The TGI [70] was 941 µM.
